Experimental data from PMC4457358, “Structure–activity studies in the development of a hydrazone based inhibitor of adipose-triglyceride lipase (ATGL)” (Bioorganic & Medicinal Chemistry, 2015).
“Also recorded” adds a separate entry of the source. Read-outs that look alike come from different tables or passages of the source.

Tests used:
murine ATGL = target: T1, murine ATGL (Mus musculus, UniProt Q8BJ56); experiment: Triglyceride hydrolase activity assay with COS7-cell lysate overexpressing recombinant murine ATGL, radiolabelled triolein substrate; format: biochemical; conditions: for inhibition at 200 µM: 1 h, read-out: I200 (%); for IC50 / biological activity against ATGL (in words): COS7-cell lysate overexpressing murine ATGL;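 on all read-outs here: radioactivity from the triolein substrate quantified by liquid scintillation counting after phase separation, reflecting triglyceride hydrolase activity of murine ATGL in lysates of transfected COS-7 cells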
T1 construct: expressed in transfected cells; host or cells: COS-7 (ATCC CRL-1651), transient transfection with Metafectene; crude lysate after 1000 x g spin
T1 sequence (Q8BJ56 1-486): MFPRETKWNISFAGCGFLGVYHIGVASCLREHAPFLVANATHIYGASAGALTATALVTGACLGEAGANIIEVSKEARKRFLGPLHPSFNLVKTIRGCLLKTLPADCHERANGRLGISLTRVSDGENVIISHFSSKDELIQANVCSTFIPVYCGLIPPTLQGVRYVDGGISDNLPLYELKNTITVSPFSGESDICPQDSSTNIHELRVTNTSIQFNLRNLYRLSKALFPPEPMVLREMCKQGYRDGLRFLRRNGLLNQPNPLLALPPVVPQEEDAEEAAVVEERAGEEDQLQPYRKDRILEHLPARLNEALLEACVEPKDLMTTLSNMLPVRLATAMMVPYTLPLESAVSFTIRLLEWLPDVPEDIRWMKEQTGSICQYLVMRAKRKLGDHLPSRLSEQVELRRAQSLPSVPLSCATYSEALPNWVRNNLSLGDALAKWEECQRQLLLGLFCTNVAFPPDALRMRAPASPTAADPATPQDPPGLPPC
Description: All synthesized test compounds were screened for their efficiency to inhibit ATGL activity in vitro in an assay using radiolabelled triolein as substrate.[20] As ATGL cannot be purified, the assays were performed with COS7-cell lysates from cells overexpressing recombinant murine ATGL. For the determination of the IC50-value inhibitors were administered with increasing concentrations to the enzyme and its substrate. To determine the ATGL-inhibition efficiency at 200 μM (I200), 200 μM inhibitor was administered to the enzyme and its substrate.
For the determination of TG hydrolase activity cell lysates of COS-7 cells overexpressing recombinant murine ATGL were used. Therefore, monkey embryonic kidney cells (Cos-7; ATCC CRL-1651) were cultivated in Dulbeccos modified eagles medium (DMEM, GIBCO, Invitrogen Corp., Carlsbad, CA), containing 10% fetal calf serum (FCS, Sigma–Aldrich) and antibiotics (100 IU/mL penicillin and 100 μg/mL streptomycin) at standard conditions (37 °C, 5% CO2, 95% humidified atmosphere). Cells were transfected with 1 μg DNA complexed to Metafectene (Biontex GmbH, Munich, Germany) in serum free DMEM. After 4 h the medium was replaced by DMEM supplemented with 10% FCS. For the preparation of cell lysates, cells were washed with 1× phosphate buffered saline, collected using a cell scraper, and disrupted in buffer A (0.25 M sucrose, 1 mM EDTA, 1 mM dithiothreitol, 20 μg/mL leupeptine, 2 μg/mL antipain, 1 μg/mL pepstatin, pH 7.0) by sonication (Virsonic 475, Virtis, Gardiner, NJ). Nuclei and unbroken cells were removed by centrifugation (1000×g, 4 °C, for 10 min). Protein concentration of the cell lysates were determined by Bio-Rad protein assay according to the manufacturer’s protocol (Bio-Rad 785, Bio-Rad Laboratories, Munich, Germany), using BSA as standard.
The triolein (TO) substrate was prepared as described. […] In brief, 330 μM triolein (40,000 cpm/nmol) (GE Healthcare) was emulsified with 45 μM phosphatidylcholine/phosphatidylinositol (3:1) (Sigma) in 100 mM potassium phosphate buffer (pH 7.0) by sonication (Virsonic 475, Virtis) and was adjusted to 5% (w/v) fatty acid free bovine serum albumin (BSA, Sigma). 100 μL (20 μg protein) cell lysate or 2 μl purified recombinant LPL (Sigma–Aldrich) were incubated with 100 μL TO substrate in the presence or in the absence of inhibitors in a water bath for 1 h at 37 °C. After incubation, the reaction was terminated by adding 3.25 mL of methanol/chloroform/heptane (10:9:7) and 1 mL of 0.1 M potassium carbonate, 0.1 M boric acid (pH 10.5). After centrifugation (800 g, 15 min), the radioactivity in 1 mL of the upper phase was determined by liquid scintillation counting.

[1] = tested on: WAT (white adipose tissue) organ cultures; experiment: Lipolysis of isolated WAT organ cultures of wild-type, ATGL-ko and HSL-ko mice (FA release); format: cell-based; conditions: for FA release (lipolysis): 0, 10, 100, 200 µM inhibitor, fat pads of wt, ATGL-ko, HSL-ko mice; for selectivity between ATGL and HSL: lipolysis similarly decreased in ATGL and HSL deficient adipose tissue
From the text: As the hydrazone moiety is regarded as a problematic molecular group due to its metabolic instability resulting in toxic side products,[12] we prepared compound 8 which can be regarded as a variant of 1a missing one nitrogen atom (Scheme 5). […] Taken together these efforts have shown that the hydrazone moiety is an essential element of the biological activity of the hit compound 1a and could not be replaced by the most obvious structural isosteres. In order to further characterize our hit compound 1a and best inhibitor 1h, these compounds were tested for ATGL- and HSL-selectivity by the determination of lipolysis in WAT (white adipose tissue) organ cultures of wild-type, ATGL-ko, and HSL-ko mice. […]
µM Inhibitor µM Inhibitor […]
(§1) (also on this page, place not known: µmol glycerol/h*mg protein nmol FFA/ml/min nmol FFA/h*mg nmol FFA/h*mg) […]
(§2) Lipolysis of isolated WAT organ cultures - Gonadal fat pads of wild-type, ATGL deficient (ATGL-ko), and HSL deficient (HSL-ko) mice were surgically removed and washed several times with PBS.
(§3) Tissue pieces (~15 mg) were preincubated in DMEM containing 0, 10, 100, and 200 µM inhibitors for 8 h at C37°C, 5% CO2, 95 % humidified atmosphere. Thereafter, the medium was replaced by DMEM containing 2 % BSA (fatty acid-free) and 0, 10, 100, and 200 µM inhibitors, and incubated for another 60 min at 37°C. Then, aliquots of the medium were removed and analyzed for FA and glycerol content using commercial kits (HR Series NEFA-HR(2), WAKO Diagnostics, Neuss, Germany; Sigma, St.
Louis, MO). For protein determinations, fat pads were washed extensively with PBS and lysed in 0.3 […]
U. et al. Monoglyceride lipase deficiency in mice impairs lipolysis and attenuates diet-induced insulin

lipoprotein lipase = experiment: LPL activity with purified recombinant LPL and triolein substrate; format: biochemical; conditions: 100 µM compound
Description: The triolein (TO) substrate was prepared as described. In brief, 330 μM triolein (40,000 cpm/nmol) (GE Healthcare) was emulsified with 45 μM phosphatidylcholine/phosphatidylinositol (3:1) (Sigma) in 100 mM potassium phosphate buffer (pH 7.0) by sonication (Virsonic 475, Virtis) and was adjusted to 5% (w/v) fatty acid free bovine serum albumin (BSA, Sigma). 100 μL (20 μg protein) cell lysate or 2 μl purified recombinant LPL (Sigma–Aldrich) were incubated with 100 μL TO substrate in the presence or in the absence of inhibitors in a water bath for 1 h at 37 °C. After incubation, the reaction was terminated by adding 3.25 mL of methanol/chloroform/heptane (10:9:7) and 1 mL of 0.1 M potassium carbonate, 0.1 M boric acid (pH 10.5). After centrifugation (800 g, 15 min), the radioactivity in 1 mL of the upper phase was determined by liquid scintillation counting.
(§4) Structure-activity studies in the development of a hydrazone based inhibitor of adipose-triglyceride lipase (ATGL)
(§5) Nicole Mayer, Martina Schweiger, Michaela-Christina Melcher, Christian Fledelius, Rudolf Zechner, Robert Zimmermann and Rolf Breinbauer […]
(§6) µM Inhibitor µM Inhibitor
(§7) Fig. S1: Selectivity tests of 1a and 1h with white adipose tissue fat pads of wt, ATGL-ko, and […]
Fig S2. LPL (left) and Monoglyceride hydrolase (MGH) (right) activities in the absence or presence of 100 µM compound 1h. […]

[2] = tested on: AML-12 mouse hepatocytes cells; experiment: Tox 4 toxicity test (neutral red viability); format: cell-based; conditions: 1, 10, 100, 200 µM inhibitor
Description: Fig. S3: Toxicity test of inhibitor 1h using Tox 4-test with AML-12 mouse hepatocytes cells […]
as §2, §3
Louis, MO). […]
viability assays, cells were seeded at an initial density of […] cells per well in 12-well plates and cultured under standard conditions for 24 hours. […] After solubilization for 10 min at room temperature absorbance was measured at 540 nm.
Determination of MG hydrolase activity. Monoacylglycerol hydrolase activities were determined using recombinant, purified mMGL and rac-1-(3)-oleoylglycerol as substrate as described (Taschler, U. et al. Monoglyceride lipase deficiency in mice impairs lipolysis and attenuates diet-induced insulin

[3] = target: T2, monoglyceride lipase (MGL) (Mus musculus, UniProt O35678); experiment: MG hydrolase activity with recombinant purified mMGL; format: biochemical; conditions: 100 µM compound
T2 sequence (O35678 1-303): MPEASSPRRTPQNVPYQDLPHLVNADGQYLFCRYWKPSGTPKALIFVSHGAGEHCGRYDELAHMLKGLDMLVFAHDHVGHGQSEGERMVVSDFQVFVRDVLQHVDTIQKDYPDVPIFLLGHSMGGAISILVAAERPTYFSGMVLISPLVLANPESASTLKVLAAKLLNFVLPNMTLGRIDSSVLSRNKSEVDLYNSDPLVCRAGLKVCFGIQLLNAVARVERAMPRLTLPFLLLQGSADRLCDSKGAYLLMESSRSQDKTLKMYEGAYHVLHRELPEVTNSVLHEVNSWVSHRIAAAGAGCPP
Description: as §4, §5, §6, §7
Fig S2. LPL (left) and Monoglyceride hydrolase (MGH) (right) activities in the absence or presence of 100 µM compound 1h.
as §1, §2
Tissue pieces (~15 mg) were preincubated in DMEM containing 0, 10, 100, and 200 µM inhibitors for 8 h at C37°C, 5% CO2, 95 % humidified atmosphere. […] Then, aliquots of the medium were removed and analyzed for FA and glycerol content using commercial kits (HR Series NEFA-HR(2), WAKO Diagnostics, Neuss, Germany; Sigma, St. […]
viability assays, cells were seeded at an initial density of […] cells per well in 12-well plates and cultured under standard conditions for 24 hours. […] After solubilization for 10 min at room temperature absorbance was measured at 540 nm. […]

[4] = ATGL-inhibition efficiency at 200 μM inhibitor

Row | SMILES | inhibition at 200 µM (murine ATGL; [4]) [%] | IC50 (murine ATGL) [µM] | melting point | other results
1 | Oc1ccc(/C=N/N2CCN(c3ccccc3)CC2)cc1O [Compound 1a, (E)-4-((4-Phenylpiperazin-1-ylimino)methyl)benzene-1,2-diol] | 69 | 110 | 180 °C | FA release (lipolysis) [1]: dose dependent reduction of FA release; selectivity between ATGL and HSL [1]: no selectivity
2 | Oc1ccc(/C=N/N2CCN(c3ccccc3)CC2)c(O)c1 [Compound 1h, (E)-4-(4-Phenylpiperazin-1-ylimino)methylbenzene-1,3-diol] | 94 | 10 | 183 to 184 °C | FA release (lipolysis) [1]: dose dependent reduction of FA release; selectivity between ATGL and HSL [1]: no selectivity; also recorded: limited specificity; inhibition of lipoprotein lipase (lipoprotein lipase): does not inhibit; toxicity (Tox 4 toxicity test) [2]: toxic; also recorded: intrinsic toxicity; inhibition of monoglyceride lipase (MGL) [3]: does not inhibit
3 | Oc1ccc(/C=N/N2CCN(Cc3ccccc3)CC2)c(O)c1 [Compound 3d, (E)-4-((4-Benzylpiperazin-1-ylimino)methyl)benzene-1,3-diol] | 48 | – | 225 to 228 °C | –
4 | Oc1ccc(/C=N/N2CCN(CCc3ccccc3)CC2)c(O)c1 [Compound 3e, (E)-4-((4-Phenethylpiperazin-1-ylimino)methyl)benzene-1,3-diol] | 14 | – | 211 to 214 °C | –
5 | Oc1ccc(/C=N/N2CCN(C3CCCCC3)CC2)c(O)c1 [Compound 3f, (E)-4-((4-Cyclohexylpiperazin-1-ylimino)methyl)benzene-1,3-diol] | 25 | – | 247 to 249 °C (dec.) | –
6 | Oc1ccc(/C=N/N2CCN(C3CCCC3)CC2)c(O)c1 [Compound 3g, (E)-4-((4-Cyclopentylpiperazin-1-ylimino)methyl)benzene-1,3-diol] | 36 | – | 237 to 239 °C (dec.) | –
7 | Oc1ccc(/C=N/N2CCC(c3ccccc3)CC2)c(O)c1 [Compound 3h, (E)-4-((4-Phenylpiperidine-1-ylimino)methyl)benzene-1,3-diol] | 81 | 40 | 139 to 142 °C | –
8 | Oc1ccc(/C=N/N2CCC(Cc3ccccc3)CC2)c(O)c1 [Compound 3i, (E)-4-((4-benzylpiperidine-1-ylimino)methyl)benzene-1,3-diol] | 26 | – | 138 to 141 °C | –
9 | Oc1ccc(CN2CCN(c3ccccc3)CC2)cc1O [Compound 8, 4-((4-Phenylpiperazin-1-yl)methyl)benzene-1,2-diol] | – | – | 100 to 102 °C | inhibition at 200 µM (murine ATGL): 20%; biological activity against ATGL (in words) (murine ATGL): biologically inactive
10 | COc1ccc(NC(=O)N2CCN(c3ccccc3)CC2)cc1OC [Compound 12, N-(3,4-Dimethoxyphenyl)-4-phenylpiperazin-1-carboxamide] | 40 | – | 122 to 125 °C | biological activity against ATGL (in words) (murine ATGL): no biological activity
11 | O=C(Oc1ccc(F)c(F)c1)N1CCN(c2ccccc2)CC1 [Compound 14, 3,4-Difluorophenyl-4-phenylpiperazin-1-carboxylate] | 57 | 110 | 94 to 96 °C | –
